We go through 16 molecules from US10562869B2, “Oxadiazole compounds” (REMYND NV, priority 2014, dated 2020).

As a reminder, the EC50 is the concentration needed to bring the measured effect to its halfway point.

In this test the test system is M17_3TAU(P301L) cells. The experiment in a line: Retinoic acid-induced cytotoxicity (LDH) in TAU-P301L expressing M17_3TAU(P301L) neuroblastoma cells. The test is classed as cell-based. The following applies: Homo sapiens, Neuroblastoma cell, 168 h; toxicity inhibition (LDH) in M17_3TAU(P301L) cells challenged with retinoic acid, 7 days. The text has this:
A TAU expression plasmid was constructed by sub-cloning the cDNA encoding for human TAU-P301L protein, wherein proline at position 301 was substituted by a leucine residue, into mammalian expression vector pcDNA3.1 resulting in the plasmid pcDNA3.1-TAUP301L. Plasmid pcDNA3.1-TAU P301L was transfected into human neuroblastoma cells (BE-M17; ATCC No. CRL-2267™) using lipofectamine reagent and subsequently, independent clonal cell lines with the plasmids stably integrated into the genome were selected by antibiotic resistance selection (Geneticin (G418)), resulting in cell line M17_3TAUP301L. Expression of the TAUP301L gene in the M17_3TAUP301L cells was confirmed by Western blot analysis.
M17_3TAU(P301L) cells were treated chronically with retinoic acid (RA) in low serum conditions to induce Alzheimer's disease-like intracellular signaling deregulation leading to increased TAU levels and subsequent cell death. Cytotoxicity of cells was measured by quantification of lactate dehydrogenase (LDH) levels. In dead cells LDH leaked out of the cells into the medium due to a loss of plasma-membrane integrity.
3 days preceding the experiment, a pre-culture of M17_3TAU(P301L) cells was prepared, starting from a stock culture, at a density of 50.000-100.000 cells/cm^2 in culture medium (Optimem Reduced Serum with phenol red (Invitrogen, Cat. 31985-047)) supplemented with 10% fetal calf serum (FCS), 1 mM sodium pyruvate, 1×non-essential amino acids (NEAA), 500 μg/ml G418 and 0.5×(ABAM). At the day of the experiment these precultures were diluted to ˜0.1·10^6 cells/ml in detection medium (Optimem Reduced Serum without phenol red (Gibco, Cat.11058-021) supplemented with 1% fetal calf serum (FCS), 1 mM sodium pyruvate, 1×non-essential amino acids (NEAA), 500 μg/ml G418 and 0.5×ABAM) and 60 μL of this suspension was dispensed per well into a 96-well microtiter plate. After 3 hours of incubation at 37° C./5% CO2 an equal volume of detection medium (without FCS) containing 3.75 μM RA was added and subsequently incubated for 7 days at 37° C./5% CO2. Then LDH activity was determined using the Promega Cytotox 96 Non-Radioactive cytotoxicity assay (Cat. G1780), according to the manufacturer's instructions. Cytotoxicity was defined as the ratio of LDH relative the total LDH in the cells and supernatant.
The assay described above using the M17_3TAU(P301L) cell line allowed to screen compounds for their ability to decrease cytotoxicity in RA-challenged cells. Compounds of the invention were tested for their ability to decrease toxicity at different concentrations, ranging from low non-effective concentrations to high potent concentrations. Afterwards, the dose-dependent inhibition curve was used to calculate their EC50. A compound was considered to be active in this test when it inhibited toxicity by more than 20% relative to untreated M17_3TAU(P301L) cells at a concentration of 10 μM or lower.

`Cc1ccccc1CN1CCN(c2nc(C3(c4ccc(F)cc4)CC3)no2)CC1` [Cmpd108, 3-(1-(4-Fluorophenyl)cyclopropyl)-5-(4-(2-methylbenzyl)piperazin-1-yl)-1,2,4-oxadiazole]: the 50% effective concentration (EC50) stood at 0.758 µM.
The molecule `Cc1cccc(CN2CCN(c3nc(CCC(F)(F)F)no3)CC2)n1` [Cmpd182, 5-(4-((6-Methylpyridin-2-yl)methyl)piperazin-1-yl)-3-(3,3,3-trifluoropropyl)-1,2,4-oxadiazole] gave an EC50 of 0.282 µM.
Consider `N#Cc1ccccc1CN1CCN(c2nc(-c3cccc(Cl)c3)no2)CC1` [Cmpd028, 2-((4-(3-(3-Chlorophenyl)-1,2,4-oxadiazol-5-yl)piperazin-1-yl)methyl)benzonitrile], for which the EC50 stood at 0.048 µM.
For the molecule `FC(F)(F)CCc1noc(N2CCN(CCN3CCOCC3)CC2)n1` [Cmpd180, 4-(2-(4-(3-(3,3,3-Trifluoropropyl)-1,2,4-oxadiazol-5-yl)piperazin-1-yl)ethyl)morpholine], the midpoint of the response, the EC50, lay at 0.222 µM.
The molecule `COc1cccc(CCN2CCN(c3nc(-c4ccc(C)cc4)no3)CC2)c1` [Cmpd009, 5-(4-(3-Methoxyphenethyl)piperazin-1-yl)-3-(p-tolyl)-1,2,4-oxadiazole] gave an EC50 of 0.039 µM.
The molecule `COc1cc(CCN2CCN(c3nc(C4(c5ccccc5)CC4)no3)CC2)ccn1` [Cmpd131, 5-(4-(2-(2-Methoxypyridin-4-yl)ethyl)piperazin-1-yl)-3-(1-phenylcyclopropyl)-1,2,4-oxadiazole] showed an EC50 of 0.135 µM.
The result for `Clc1ccc(CCN2CCN(c3nc(C4(c5ccccc5)CC4)no3)CC2)cc1` [Cmpd127, 5-(4-(4-Chlorophenethyl)piperazin-1-yl)-3-(1-phenylcyclopropyl)-1,2,4-oxadiazole] reads 0.059 µM; that for `COc1cccc(CCN2CCN(c3nc(Cc4cccc(Cl)c4)no3)CC2)c1` [Cmpd076, 1-[3-(3-Chloro-benzyl)-[1,2,4]oxadiazol-5-yl]-4-[2-(3-methoxy-phenyl)-ethyl]-piperazine], 0.006 µM; that for `Fc1ccc(-c2noc(N3CCN(CCc4ccc(Cl)cc4)CC3)n2)cc1F` [Cmpd036, 1-[2-(4-Chloro-phenyl)-ethyl]-4-[3-(3,4-difluoro-phenyl)-[1,2,4]oxadiazol-5-yl]-piperazine], 0.022 µM.
`CC(C)CCN1CCN(c2nc(-c3ccccc3)no2)CC1` [Cmpd006, 5-(4-Isopentylpiperazin-1-yl)-3-phenyl-1,2,4-oxadiazole] had a 50% effective concentration (EC50) of 0.008 µM.
On to `Fc1ccc(C(F)(F)c2noc(N3CCN(Cc4ccc5c(c4)OCO5)CC3)n2)cc1` [Cmpd149, 5-(4-(Benzo[d][1,3]dioxol-5-ylmethyl)piperazin-1-yl)-3-(difluoro(4-fluorophenyl)methyl)-1,2,4-oxadiazole], for which the response was half-maximal at 0.849 µM (EC50).
`FC(F)(F)CCCN1CCN(c2nc(Cc3ccc(Cl)cc3)no2)CC1` [Cmpd068, 1-[3-(4-Chloro-benzyl)-[1,2,4]oxadiazol-5-yl]-4-(4,4,4-trifluoro-butyl)-piperazine] returned an EC50 of 0.151 µM.
The result for `COc1cccc(CCN2CCN(c3nc(CC(F)(F)F)no3)CC2)c1` [Cmpd163, 5-(4-(3-Methoxyphenethyl)piperazin-1-yl)-3-(2,2,2-trifluoroethyl)-1,2,4-oxadiazole] reads 0.418 µM; that for `Clc1ccc(Cc2noc(N3CCN(Cc4ccccc4Cl)CC3)n2)cc1` [Cmpd062, 1-(2-Chloro-benzyl)-4-[3-(4-chloro-benzyl)-[1,2,4]oxadiazol-5-yl]-piperazine], 0.002 µM.
For the molecule `Clc1ccc(CCN2CCN(c3nc(-c4ccccc4)no3)CC2)cc1` [Cmpd003, 5-(4-(4-Chlorophenethyl)piperazin-1-yl)-3-phenyl-1,2,4-oxadiazole], the midpoint of the response, the EC50, lay at 0.012 µM.
Consider `COc1cc(CCN2CCN(c3nc(-c4ccccc4)no3)CC2)ccn1` [Cmpd004, 5-(4-(2-(2-Methoxypyridin-4-yl)ethyl)piperazin-1-yl)-3-phenyl-1,2,4-oxadiazole], for which the EC50 was found to be 0.036 µM.
